These results are taken from patent US5532267A, “Amidinonaphthyl furancarboxylate derivatives and acid addition salts therof” (Torii & Co., Ltd., priority 1992, dated 1996).

Counter-ions that a name gives are not always drawn. Like-named read-outs stand apart in the source and are kept apart here.

Holding throughout (assay type): biochemical
In assay [1] the target is thrombin (Homo sapiens, UniProt P00734). The experiment in a line: anti-thrombin activity, hydrolysis of TAME (tosylarginine methyl ester). The note with it: for IC50: hydrolysis of TAME, read-out: Thr: molar concentration inhibiting 50% of enzyme activity (IC50); for inhibition at 10 µM: at a concentration of 1 × 10^-5 M, read-out: Thr: percentage inhibition. As to the method:
(§1) The values in Table 1 represent molar concentrations (IC50) of test compounds which inhibit 50% of the activity of each enzyme to hydrolyze TAME (tosylarginine methyl ester). The anti-trypsin, anti-plasmin, anti-kallikrein and anti-thrombin activities were determined according to the method of Muramatsu et al. (J. Biochem. (1965), volume 58, page 214).

Assay [2] concerns the target plasmin (Homo sapiens, UniProt P00747). As to the kind of experiment: anti-plasmin activity, hydrolysis of TAME (tosylarginine methyl ester). The note with it: hydrolysis of TAME; read-out: Pla: molar concentration inhibiting 50% of enzyme activity (IC50). As to the method:
as §1

Assay [3] has as its target T1, trypsin (Bos taurus, UniProt P00760).
T1 sequence (P00760 24-246): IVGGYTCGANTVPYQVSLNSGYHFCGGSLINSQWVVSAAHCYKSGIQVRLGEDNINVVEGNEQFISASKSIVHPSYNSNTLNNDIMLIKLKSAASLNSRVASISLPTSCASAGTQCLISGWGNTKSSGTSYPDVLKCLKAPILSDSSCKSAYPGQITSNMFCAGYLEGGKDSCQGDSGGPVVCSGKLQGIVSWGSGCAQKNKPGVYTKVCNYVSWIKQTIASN
The experiment in a line: anti-trypsin activity, hydrolysis of TAME (tosylarginine methyl ester).

Assay [4] deals with T2, C1s (Homo sapiens, UniProt P09871).
T2 sequence (P09871 16-688): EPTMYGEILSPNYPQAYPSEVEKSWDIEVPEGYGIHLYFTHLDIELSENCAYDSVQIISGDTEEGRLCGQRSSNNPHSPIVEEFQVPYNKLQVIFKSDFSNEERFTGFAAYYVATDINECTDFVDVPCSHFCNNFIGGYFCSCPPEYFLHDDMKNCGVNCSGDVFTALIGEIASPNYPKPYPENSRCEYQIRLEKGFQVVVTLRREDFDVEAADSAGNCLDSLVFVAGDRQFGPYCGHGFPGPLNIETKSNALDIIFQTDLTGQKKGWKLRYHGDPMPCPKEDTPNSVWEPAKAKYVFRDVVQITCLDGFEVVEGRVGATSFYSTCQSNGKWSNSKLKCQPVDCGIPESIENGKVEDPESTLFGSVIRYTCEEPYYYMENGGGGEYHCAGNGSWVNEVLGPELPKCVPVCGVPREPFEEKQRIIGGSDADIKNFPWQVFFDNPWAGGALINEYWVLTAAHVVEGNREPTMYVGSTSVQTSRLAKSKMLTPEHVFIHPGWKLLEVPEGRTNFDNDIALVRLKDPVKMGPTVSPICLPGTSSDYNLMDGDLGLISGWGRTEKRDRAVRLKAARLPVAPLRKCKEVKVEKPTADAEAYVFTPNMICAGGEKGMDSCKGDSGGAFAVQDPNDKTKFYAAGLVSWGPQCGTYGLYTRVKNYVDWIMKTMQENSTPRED
The experiment in a line: anti-complement (anti-C1 esterase) activity, C1s hydrolysis of ATEE (acetyltyrosine ethyl ester). The note with it: for IC50: hydrolysis of ATEE, read-out: Cls: molar concentration inhibiting 50% of C1s activity (IC50).
Protocol: The anti-C1 esterase (C1r, C1s) activity was determined according to the method of Okamura et al. (Biochem. Biophys. Acta (1973), volume 295, pages 252-257). […] The values for C1s represent molar concentrations (IC50) of test compounds which inhibit 50% of the activity of C1s to hydrolyze ATEE (acetyltyrosine ethyl ester).

Assay [5] deals with T3, C1r (Homo sapiens, UniProt P00736).
T3 sequence (P00736 18-705): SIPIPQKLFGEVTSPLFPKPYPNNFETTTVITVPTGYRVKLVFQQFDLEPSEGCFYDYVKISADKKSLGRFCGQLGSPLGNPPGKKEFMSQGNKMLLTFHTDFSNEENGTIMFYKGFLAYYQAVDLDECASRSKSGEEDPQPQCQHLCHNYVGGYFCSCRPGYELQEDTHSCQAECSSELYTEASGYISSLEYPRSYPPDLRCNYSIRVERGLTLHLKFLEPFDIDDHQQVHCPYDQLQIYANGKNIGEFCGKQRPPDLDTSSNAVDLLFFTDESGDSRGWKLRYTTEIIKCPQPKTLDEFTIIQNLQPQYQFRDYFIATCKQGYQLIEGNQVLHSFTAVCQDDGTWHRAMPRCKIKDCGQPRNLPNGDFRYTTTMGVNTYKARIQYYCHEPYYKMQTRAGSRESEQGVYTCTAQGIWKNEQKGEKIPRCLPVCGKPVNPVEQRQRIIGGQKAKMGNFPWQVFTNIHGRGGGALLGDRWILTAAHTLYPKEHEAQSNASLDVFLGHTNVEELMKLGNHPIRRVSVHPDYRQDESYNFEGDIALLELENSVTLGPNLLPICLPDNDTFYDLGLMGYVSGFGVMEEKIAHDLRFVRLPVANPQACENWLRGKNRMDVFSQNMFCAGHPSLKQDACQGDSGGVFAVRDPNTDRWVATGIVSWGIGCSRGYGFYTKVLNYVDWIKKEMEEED
The experiment in a line: anti-complement (anti-C1 esterase) activity, C1r hydrolysis of AAME (acetyl-arginine methyl ester). The note with it: for inhibition at 10 µM: read-out: Clr: percentage inhibition.

Assay [6] has as its system kallikrein. As to the kind of experiment: anti-kallikrein activity, hydrolysis of TAME (tosylarginine methyl ester). The note with it: for IC50: hydrolysis of TAME, read-out: Kal: molar concentration inhibiting 50% of enzyme activity (IC50); for Kal: percentage inhibition: at a concentration of 1 × 10^-5 M. As to the method:
as §1

Where [7] appears, read: hydrolysis of TAME, read-out: Try: molar concentration inhibiting 50% of enzyme activity (IC50).
Where [8] appears, read: hydrolysis of AAME, read-out: Clr: molar concentration inhibiting 50% of C1r activity (IC50).

plasmin, sequence (P00747 581-810 limits assumed, species assumed): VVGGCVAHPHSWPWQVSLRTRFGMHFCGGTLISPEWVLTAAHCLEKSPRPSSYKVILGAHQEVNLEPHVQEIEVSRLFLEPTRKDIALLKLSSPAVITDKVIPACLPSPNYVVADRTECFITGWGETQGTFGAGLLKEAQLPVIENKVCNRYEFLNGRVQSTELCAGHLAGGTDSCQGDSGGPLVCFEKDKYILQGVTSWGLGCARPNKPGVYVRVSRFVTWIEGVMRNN
plasmin, sequence (P00747 97-580 partner limits assumed, species assumed): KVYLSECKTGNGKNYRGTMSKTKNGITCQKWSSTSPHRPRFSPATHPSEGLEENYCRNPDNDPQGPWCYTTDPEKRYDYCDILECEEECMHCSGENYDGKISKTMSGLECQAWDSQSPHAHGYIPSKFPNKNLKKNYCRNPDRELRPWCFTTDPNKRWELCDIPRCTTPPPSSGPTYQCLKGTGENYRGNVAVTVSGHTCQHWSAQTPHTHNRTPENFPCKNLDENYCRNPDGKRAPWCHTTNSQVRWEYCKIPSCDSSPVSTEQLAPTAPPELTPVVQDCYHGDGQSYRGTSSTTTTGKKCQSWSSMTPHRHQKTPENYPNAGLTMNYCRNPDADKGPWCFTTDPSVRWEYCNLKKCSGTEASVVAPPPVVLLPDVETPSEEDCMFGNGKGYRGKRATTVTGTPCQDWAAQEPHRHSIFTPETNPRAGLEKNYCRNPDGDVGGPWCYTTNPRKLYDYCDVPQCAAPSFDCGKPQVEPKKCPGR

As for `N=C(N)c1ccc2cc(OC(=O)c3ccc(CNC(=O)[C@H]4CC[C@@H](C(=O)O)CC4)o3)ccc2c1` [Example 10, 6-Amidino-2-naphthyl 5-(cis-4-carboxy-1-cyclohexanoylaminomethyl)furan-2-carboxylate hydrochloride], the IC50 in assay [1] turned out to be 1600 nM; in assay [2], 150 nM; in assay [3] (setting [7]), 600 nM; in assay [4], 26 nM; in assay [5], 160 nM; in assay [6], 250 nM.

As usually defined, the inhibition is how much of the control response was suppressed. For `Cl.N=C(N)c1ccc2cc(OC(=O)c3ccc(CNC(=O)c4ccc(C(=O)O)cc4)o3)ccc2c1` [Example 3, 6-Amidino-2-naphthyl 5-(4-carboxybenzoylaminomethyl)furan-2-carboxylate hydrochloride], the inhibition at 10 µM in assay [1] was 26%; in assay [3] (read-out: Try: percentage inhibition), 48%; in assay [5] it was 34%. The IC50 in assay [2] was found to be 8600 nM; in assay [4] it was 3400 nM. The “Kal: percentage inhibition” value in assay [6] amounted to 33%.

For `Cc1oc(=O)oc1COC(=O)CCC(=O)NCc1ccc(C(=O)Oc2ccc3cc(C(=N)N)ccc3c2)o1` [Example 33, 6-Amidino-2-naphthyl 5-{[3-(4-methyl-1,3-dioxole-2-one-5-yl)methoxycarbonyl]propionylaminomethyl}furan-2-carboxylate hydrochloride], the IC50 stood at 23 nM in assay [1]; 84 nM in assay [2]; 6600 nM in assay [3] (setting [7]); 220 nM in assay [4]; 140 nM in assay [5] (setting [8]); 580 nM in assay [6].

Turning to `CC(C)(C)OC(=O)c1ccc(CC(=O)NCc2ccc(C(=O)Oc3ccc4cc(C(=N)N)ccc4c3)o2)cc1` [Example 5, 6-Amidino-2-naphthyl 5-(4-t-butoxycarbonylphenylacetylaminomethyl)furan-2-carboxylate hydrochloride], the IC50 came out at 180 nM in assay [1]; 100 nM in assay [2]; 340 nM in assay [3] (setting [7]); 360 nM in assay [4]; 73 nM in assay [5] (setting [8]); 300 nM in assay [6].

Take `N=C(N)c1ccc2cc(OC(=O)c3ccc(CNC(=O)c4ccc(CCC(=O)O)cc4)o3)ccc2c1` [Example 9, 6-Amidino-2-naphthyl 5-[4-(2-carboxyethyl)benzoylaminomethyl]furan-2-carboxylate hydrochloride]: the IC50 amounted to 650 nM in assay [1]; 500 nM in assay [2]; 4800 nM in assay [3] (setting [7]); 2300 nM in assay [4]; 2800 nM in assay [5] (setting [8]); 6000 nM in assay [6].

In the case of `CC(C)(C)OC(=O)C=Cc1ccc(C(=O)NCc2ccc(C(=O)Oc3ccc4cc(C(=N)N)ccc4c3)o2)cc1` [Example 1, 6-Amidino-2-naphthyl 5-[4-(2-t-butoxycarbonylvinyl)benzoylaminomethyl]furan-2-carboxylate hydrobromide], the IC50 in assay [1] stood at 350 nM; in assay [2], 150 nM; in assay [3], 350 nM; in assay [4] it was 270 nM; in assay [5] (setting [8]) it was 340 nM; in assay [6], 470 nM.

For `CC(C)(C)OC(=O)CC(=O)NCc1ccc(C(=O)Oc2ccc3cc(C(=N)N)ccc3c2)o1` [Example 15, 6-Amidino-2-naphthyl 5-t-butoxymalonylaminomethylfuran-2-carboxylate hydrochloride], the IC50 in assay [1] is 400 nM; in assay [2], 310 nM; in assay [3] (setting [7]), 710 nM; in assay [4], 230 nM; in assay [5] (setting [8]) it was 840 nM; in assay [6] it was 320 nM.

For the compound `Cl.N=C(N)c1ccc2cc(OC(=O)c3ccc(CNC(=O)c4ccc(C=CC(=O)O)cc4)o3)ccc2c1` [Example 2, 6-Amidino-2-naphthyl 5-[4-(2-carboxyvinyl)benzoylaminomethyl]furan-2-carboxylate hydrochloride], the inhibition at 10 µM in assay [1] stood at 47%; in assay [4] (read-out: Cls: percentage inhibition), 17%; in assay [5] (at a concentration of 1 × 10^-5 M), 29%. Further, the IC50 in assay [2] came to 4800 nM; in assay [3] (setting [7]), 8400 nM. Also, in assay [6], the “Kal: percentage inhibition” value amounted to 46%.

In the case of `CC(C)(C)OC(=O)CCC(NC(=N)N)C(=O)NCc1ccc(C(=O)Oc2ccc3cc(C(=N)N)ccc3c2)o1` (stereo not drawn) [Example 20, 6-amidino-2-naphthyl 5-(4-t-butoxycarbonyl-2-guanidinobutyrylaminomethyl)furan-2-carboxylate hydrochloride hydrobromide], the IC50 is 460 nM in assay [1]; 180 nM in assay [2]; 2000 nM in assay [3] (setting [7]); 390 nM in assay [4]; 380 nM in assay [5] (setting [8]); 130 nM in assay [6].

For `N=C(N)c1ccc2cc(OC(=O)c3ccc(CNC(=O)CCC(=O)O)o3)ccc2c1` [Example 21, 6-amidino-2-naphthyl 5-(3-carboxypropionylaminomethyl)furan-2-carboxylate hydrochloride], the IC50 in assay [1] amounted to 960 nM; in assay [2], 330 nM; in assay [3] (setting [7]), 310 nM; in assay [4], 180 nM; in assay [5] (setting [8]), 540 nM; in assay [6], 700 nM.

`N=C(N)c1ccc2cc(OC(=O)c3ccc(CNC(=O)C=Cc4ccc(C(=O)O)cc4)o3)ccc2c1` [Example 8, 6-Amidino-2-naphthyl 5-(4-carboxycinnamoylaminomethyl)furan-2-carboxylate hydrochloride]: the IC50 stood at 1400 nM in assay [1]; 1100 nM in assay [2]; 2100 nM in assay [3] (setting [7]); 2000 nM in assay [4]; 830 nM in assay [5] (setting [8]); 2700 nM in assay [6].

`COC(=O)Cc1ccc(C(=O)NCc2ccc(C(=O)Oc3ccc4cc(C(=N)N)ccc4c3)o2)cc1` [Example 4, 6-Amidino-2-naphthyl 5-(4-methoxycarbonylmethylbenzoylaminomethyl)furan-2-carboxylate hydrochloride]: the IC50 in assay [1] came out at 70 nM; in assay [2], 72 nM; in assay [3] (setting [7]), 340 nM; in assay [4], 160 nM; in assay [5] (setting [8]), 64 nM; in assay [6] it was 210 nM.

Regarding `N=C(N)NC(CCC(=O)O)C(=O)NCc1ccc(C(=O)Oc2ccc3cc(C(=N)N)ccc3c2)o1` (stereo not drawn) [Example 29, 6-Amidino-2-naphthyl 5-(4-carboxy-2-guanidinobutyrylaminomethyl)furan-2-carboxylate dihydrobromide], the IC50 in assay [1] was found to be 1600 nM; in assay [2], 230 nM; in assay [3] (setting [7]) it was 1200 nM; in assay [4], 360 nM; in assay [5] (setting [8]), 440 nM; in assay [6], 240 nM.
